Values joined by “and” are separate entries in the source; they are usually repeats but may differ in a detail not shown here. Identical values can stand only once. Toxic doses and inconclusive results are not listed.
Test system: BDF1 mice, P388 leukemia ip, median survival T/C
Experiment: NCI In Vivo Anticancer Drug Screen. Data for tumor model P388 Leukemia (intraperitoneal) in B6D2F1 (BDF1) mice
Conditions: endpoint: median survival time, higher = longer survival
Procedure, shortened: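 Reported as T/C, where T is the survival measurement in dosed animals and C the same measurement in vehicle controls.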

[1] = dose: 100.0 mg/kg/injection, schedule: Q01DX009 (ip), vehicle: Klucel (hydroxypropylcellulose) (HPC)
[2] = dose: 100.0 mg/kg/injection, schedule: Q04DX003 (ip), vehicle: Klucel (hydroxypropylcellulose) (HPC)
[3] = dose: 200.0 mg/kg/injection, schedule: Q01DX009 (ip), vehicle: Klucel (hydroxypropylcellulose) (HPC)
[4] = dose: 400.0 mg/kg/injection, schedule: Q04DX003 (ip), vehicle: Klucel (hydroxypropylcellulose) (HPC)
[5] = dose: 25.0 mg/kg/injection, schedule: Q01DX009 (ip), vehicle: Klucel (hydroxypropylcellulose) (HPC)
[6] = dose: 50.0 mg/kg/injection, schedule: Q04DX003 (ip), vehicle: Klucel (hydroxypropylcellulose) (HPC)
[7] = dose: 100.0 mg/kg/injection, schedule: Q01DX009 (ip), vehicle: saline with Tween-80
[8] = dose: 400.0 mg/kg/injection, schedule: Q01DX009 (ip), vehicle: saline with Tween-80
[9] = dose: 25.0 mg/kg/injection, schedule: Q01DX009 (ip), vehicle: saline with Tween-80
[10] = dose: 50.0 mg/kg/injection, schedule: Q01DX009 (ip), vehicle: saline with Tween-80
[11] = dose: 100.0 mg/kg/injection, schedule: Q04DX003 (ip), vehicle: saline with Tween-80
[12] = dose: 200.0 mg/kg/injection, schedule: Q04DX003 (ip), vehicle: saline with Tween-80
[13] = dose: 400.0 mg/kg/injection, schedule: Q04DX003 (ip), vehicle: saline with Tween-80
[14] = dose: 200.0 mg/kg/injection, schedule: Q01DX009 (ip), vehicle: saline with Tween-80
[15] = dose: 50.0 mg/kg/injection, schedule: Q04DX003 (ip), vehicle: saline with Tween-80
[16] = dose: 25.0 mg/kg/injection, schedule: Q04DX003 (ip), vehicle: Klucel (hydroxypropylcellulose) (HPC)
[17] = dose: 50.0 mg/kg/injection, schedule: Q01DX009 (ip), vehicle: Klucel (hydroxypropylcellulose) (HPC)

For `CC(C)CCC[C@@H](C)[C@H]1CC[C@H]2[C@@H]3CC=C4C[C@@H](O)CC[C@]4(C)[C@H]3CC[C@]12C`, the T/C (dose: 100.0 mg/kg/injection, schedule: Q01DX009 (ip), vehicle: other) was 106 % of control, the T/C (dose: 200.0 mg/kg/injection, schedule: Q01DX009 (ip), vehicle: other) was 103 % of control and the T/C (dose: 400.0 mg/kg/injection, schedule: Q01DX009 (ip), vehicle: other) was 89 % of control. The T/C (dose: 800.0 mg/kg/injection, schedule: Q01DX009 (ip), vehicle: other) was 105 % of control.
In the case of `COc1cccc2c1C(=O)c1c(O)c3c(c(O)c1C2=O)C[C@@](O)(/C(CO)=N/NC(=O)c1ccccc1)C[C@@H]3OC1CC(N)C(O)C(C)O1` (some centres not stated), the T/C (dose: 3.12 mg/kg/injection, schedule: Q01DX009 (ip), vehicle: water) is reported as 180 % of control, the T/C (dose: 6.25 mg/kg/injection, schedule: Q01DX009 (ip), vehicle: water) is reported as 252 % of control and the T/C (dose: 12.5 mg/kg/injection, schedule: Q01DX009 (ip), vehicle: water) is reported as 267 % of control.
In the case of `CC(=O)c1ccccc1I`, the T/C [1] is reported as 100 % of control, the T/C [2] is reported as 104 % of control and the T/C [3] is reported as 95 % of control. The T/C (dose: 200.0 mg/kg/injection, schedule: Q04DX003 (ip), vehicle: Klucel (hydroxypropylcellulose) (HPC)) was 100 % of control, the T/C (dose: 400.0 mg/kg/injection, schedule: Q01DX009 (ip), vehicle: Klucel (hydroxypropylcellulose) (HPC)) was 100 % of control and the T/C [4] was 95 % of control.
`O=Ic1ccccc1` was tested, and the T/C (dose: 6.25 mg/kg/injection, schedule: Q01DX009 (ip), vehicle: Klucel (hydroxypropylcellulose) (HPC)) was 105 % of control and 118 % of control, the T/C (dose: 12.5 mg/kg/injection, schedule: Q01DX009 (ip), vehicle: Klucel (hydroxypropylcellulose) (HPC)) was 105 % of control and 116 % of control and the T/C [5] was 122 % of control and 124 % of control and 204 % of control. The T/C [6] was 104 % of control and the T/C [2] was 95 % of control.
For `CC(=O)OC(C(=O)N(c1ccccc1)c1ccccc1)c1ccccc1` (configuration not stated), the T/C [7] was 92 % of control and the T/C [8] was 96 % of control.
In the case of `CC1=NC2=NC(CCCC(=O)Nc3ccc(Cl)cc3)=NC3=CC=CC(=N1)N32`, the T/C [9] is reported as 104 % of control, the T/C [10] is reported as 95 % of control and the T/C [7] is reported as 99 % of control.
In the case of `O=C1c2ccccc2-c2cc3ccccc3cc21`, the T/C (dose: 75.0 mg/kg/injection, schedule: Q04DX003 (ip), vehicle: saline sonified) is reported as 100 % of control, the T/C (dose: 150.0 mg/kg/injection, schedule: Q04DX003 (ip), vehicle: saline sonified) is reported as 110 % of control and the T/C (dose: 300.0 mg/kg/injection, schedule: Q04DX003 (ip), vehicle: saline sonified) is reported as 110 % of control.
With `COc1cc(/C=N/NC(=O)c2cccs2)cc(OC)c1OC` the T/C [11] was 90 % of control, the T/C [12] was 90 % of control and the T/C [13] was 100 % of control.
For `O=C(Oc1ccc(-c2ccc(Br)cc2)cc1)c1ccco1`, the T/C [10] was 90 % of control and the T/C [7] was 90 % of control.
For `COc1ccc(CNCC(=O)OCc2ccccc2)cc1`, the T/C [9] was 92 % of control, the T/C [10] was 101 % of control and the T/C [7] was 88 % of control. For the same compound, the T/C [11] was 111 % of control, the T/C [14] was 102 % of control and the T/C [12] was 109 % of control.
`O=P(N1CC=CCC1)(N1CC1)N1CC1` was tested, and the T/C (dose: 2.2 mg/kg/injection, schedule: Q01DX009 (ip), vehicle: saline) was 115 % of control, the T/C (dose: 3.3 mg/kg/injection, schedule: Q01DX009 (ip), vehicle: saline) was 105 % of control and the T/C (dose: 5.0 mg/kg/injection, schedule: Q01DX009 (ip), vehicle: saline) was 161 % of control. For the same compound, the T/C (dose: 6.25 mg/kg/injection, schedule: Q01DX009 (ip), vehicle: saline) was 190 % of control, the T/C (dose: 7.5 mg/kg/injection, schedule: Q01DX009 (ip), vehicle: saline) was 195 % of control and the T/C (dose: 12.5 mg/kg/injection, schedule: Q01DX009 (ip), vehicle: saline) was 245 % of control and 191 % of control. The T/C (dose: 25.0 mg/kg/injection, schedule: Q01DX009 (ip), vehicle: saline) was 87 % of control and 90 % of control.
`CC(C)(C)c1ccc(C(=O)C2CC2)cc1` was tested, and the T/C (dose: 25.0 mg/kg/injection, schedule: Q04DX003 (ip), vehicle: saline with Tween-80) was 90 % of control, the T/C [15] was 95 % of control and the T/C [11] was 86 % of control.
In the case of `COc1cc2cc3c4ccc(OC)c(OC)c4cc[n+]3c(C)c2cc1OC` (tested in a mixture with another compound), the T/C (dose: 20.0 mg/kg/injection, schedule: Q01DX009 (ip), vehicle: saline) is reported as 164 % of control, the T/C (dose: 40.0 mg/kg/injection, schedule: Q01DX009 (ip), vehicle: saline) is reported as 150 % of control and 156 % of control and the T/C (dose: 80.0 mg/kg/injection, schedule: Q01DX009 (ip), vehicle: saline) is reported as 168 % of control and 172 % of control. The T/C (dose: 120.0 mg/kg/injection, schedule: Q01DX009 (ip), vehicle: saline) was 172 % of control and 185 % of control.
In the case of `CC(C)C1C(C)N1C(C)C` (configuration not stated), the T/C [5] is reported as 100 % of control, the T/C [16] is reported as 100 % of control and the T/C [17] is reported as 100 % of control. For the same compound, the T/C [6] was 100 % of control, the T/C [1] was 95 % of control and the T/C [2] was 104 % of control.
In the case of `Nc1c(Cl)cc(S(N)(=O)=O)cc1Cl`, the T/C [7] is reported as 86 % of control, the T/C [11] is reported as 104 % of control and the T/C [14] is reported as 90 % of control. The T/C [12] was 104 % of control and the T/C [13] was 100 % of control.
For `Cc1[nH]n(CCO)c(=O)c1N=O`, the T/C (dose: 15.0 mg/kg/injection, schedule: Q01DX009 (ip), vehicle: saline with Tween-80) was 95 % of control, the T/C (dose: 30.0 mg/kg/injection, schedule: Q01DX009 (ip), vehicle: saline with Tween-80) was 93 % of control and the T/C (dose: 60.0 mg/kg/injection, schedule: Q01DX009 (ip), vehicle: saline with Tween-80) was 100 % of control.
`O=[N+]([O-])c1cc(-c2nc3ccccc3[nH]2)cc([N+](=O)[O-])c1` was tested, and the T/C [10] was 110 % of control and the T/C [7] was 91 % of control.
For `NC(=O)NC(C(=O)O)(c1ccccc1)C1CCC1` (configuration not stated), the T/C [15] was 99 % of control, the T/C [11] was 91 % of control and the T/C [12] was 95 % of control. For the same compound, the T/C [13] was 95 % of control.
In the case of `CCSc1ncc(C)c(Cl)n1`, the T/C (dose: 100.0 mg/kg/injection, schedule: Q01DX009 (ip), vehicle: water) is reported as 107 % of control, the T/C (dose: 100.0 mg/kg/injection, schedule: Q04DX003 (ip), vehicle: water) is reported as 105 % of control and the T/C (dose: 200.0 mg/kg/injection, schedule: Q01DX009 (ip), vehicle: water) is reported as 99 % of control. For the same compound, the T/C (dose: 200.0 mg/kg/injection, schedule: Q04DX003 (ip), vehicle: water) was 107 % of control, the T/C (dose: 400.0 mg/kg/injection, schedule: Q01DX009 (ip), vehicle: water) was 108 % of control and the T/C (dose: 400.0 mg/kg/injection, schedule: Q04DX003 (ip), vehicle: water) was 103 % of control.
For `CC=NC(C[S-])C(=O)O.CC=NC(C[S-])C(=O)O.[Fe+2]` (configuration not stated), the T/C [10] was 110 % of control, the T/C [7] was 100 % of control and 105 % of control and the T/C [14] was 100 % of control and 104 % of control.
`CC(C)(C)NCCC(O)c1cc2c(Cl)cc(Cl)cc2c2cc(C(F)(F)F)ccc12` (configuration not stated) was tested, and the T/C (dose: 12.5 mg/kg/injection, schedule: Q01DX009 (ip), vehicle: saline with Tween-80) was 90 % of control, the T/C [9] was 106 % of control and the T/C [10] was 108 % of control and 114 % of control.
For `CC1=CC2=NC(=O)C(c3ccccc3)C(=O)N2C=C1` (configuration not stated), the T/C [5] was 100 % of control, the T/C [16] was 100 % of control and the T/C [17] was 105 % of control. For the same compound, the T/C [6] was 100 % of control, the T/C [1] was 115 % of control and the T/C [2] was 100 % of control. The T/C [4] was 88 % of control.
`Cc1[nH]c(N)nc(=S)c1CCC(=O)Nc1ccc(C(=O)NC(CCC(=O)O)C(=O)O)cc1` (configuration not stated) was tested, and the T/C [10] was 91 % of control, the T/C [7] was 99 % of control and the T/C [14] was 101 % of control. The T/C [8] was 106 % of control.
With `c1ccc(C2CC3CCCCN3O2)cc1` (configuration not stated) the T/C (dose: 100.0 mg/kg/injection, schedule: Q04DX002 (ip), vehicle: saline with Tween-80) was 94 % of control, the T/C (dose: 200.0 mg/kg/injection, schedule: Q04DX002 (ip), vehicle: saline with Tween-80) was 103 % of control and the T/C (dose: 400.0 mg/kg/injection, schedule: Q04DX002 (ip), vehicle: saline with Tween-80) was 86 % of control.
In the case of `COC(=O)c1ccc(CSc2ccccc2NC(=S)Nc2cccc(SC)c2)o1`, the T/C [10] is reported as 90 % of control, the T/C [7] is reported as 92 % of control and the T/C [14] is reported as 90 % of control.
For `CC(=O)C1C(=O)C(=O)OC1C` (configuration not stated), the T/C [17] was 109 % of control, the T/C [1] was 95 % of control and the T/C [11] was 113 % of control. For the same compound, the T/C [3] was 90 % of control and the T/C [12] was 104 % of control.
With `CCCCCCCCCCCCO[P+](=O)OCCCCCCCCCCCC` the T/C (dose: 200.0 mg/kg/injection, schedule: Q04DX003 (ip), vehicle: saline sonified) was 100 % of control and the T/C (dose: 400.0 mg/kg/injection, schedule: Q04DX003 (ip), vehicle: saline sonified) was 100 % of control.
